Data reported in ChEMBL document CHEMBL1201862, “PubChem BioAssay data set” (2004).
Calls of active or inactive are those of the source.

What was measured:
[1] = biological target: fMet-Leu-Phe receptor (Homo sapiens, UniProt P21462); experiment: FPR ligands, dose response (AID 519); type: functional
[2] = cytotoxicity in OVCAR8 ovarian cancer cells, dose response, PAX8 project, cell-based, plate reader, dry powder samples (AID 743197); type: functional; details: OVCAR-8
[3] = NIH:OVCAR-3 ovarian cancer cell cytotoxicity, dose response, PAX8 inhibitor project, plate reader, dry powder samples (AID 743044); type: functional, cell-based
[4] = biological target: Paired box protein Pax-8 (Homo sapiens, UniProt Q06710); experiment: inhibitors of PAX8-driven TPO luciferase reporter, dose response, RMG-I cells, cherry-pick (AID 687027); type: functional, cell-based;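 note: luciferase reporter driven by Pax8 target thyroperoxidase promoter measured by SteadyGlo luminescence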
[5] = A2780 ovarian cancer cell cytotoxicity, dose response, cytotoxicity control, plate reader, dry powder samples (AID 743046); type: functional, cell-based
[6] = biological target: Endoplasmic reticulum aminopeptidase 1 (Homo sapiens, UniProt Q9NZ08); experiment: ERAP1 aminopeptidase inhibitors, dose response, biochemical, cherry-pick, set 2, plate reader (AID 743314)
[7] = inhibitors of non-replicating M. tuberculosis, dose response, luciferase, dry powder (AID 651619); type: functional
[8] = inhibitors of non-replicating M. tuberculosis, dose response, luciferase, dry powder (AID 651620); type: functional
[9] = biological target: NAD-dependent protein deacylase sirtuin-5, mitochondrial (Homo sapiens, UniProt Q9NXA8); experiment: SIRT5 deacylase inhibitors, dose response, biochemical, fluorescence imaging, cherry-pick, set 6 (AID 720597)
Chain of NAD-dependent protein deacylase sirtuin-5, mitochondrial (Q9NXA8 whole entry): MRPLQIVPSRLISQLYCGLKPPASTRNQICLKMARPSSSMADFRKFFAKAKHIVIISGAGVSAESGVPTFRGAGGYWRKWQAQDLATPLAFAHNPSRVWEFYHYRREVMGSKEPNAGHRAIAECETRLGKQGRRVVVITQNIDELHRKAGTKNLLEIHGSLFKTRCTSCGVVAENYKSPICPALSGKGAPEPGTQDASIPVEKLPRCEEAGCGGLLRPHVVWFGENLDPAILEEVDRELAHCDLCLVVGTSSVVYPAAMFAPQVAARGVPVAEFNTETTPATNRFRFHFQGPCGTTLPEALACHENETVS

Chain of fMet-Leu-Phe receptor (P21462 whole entry): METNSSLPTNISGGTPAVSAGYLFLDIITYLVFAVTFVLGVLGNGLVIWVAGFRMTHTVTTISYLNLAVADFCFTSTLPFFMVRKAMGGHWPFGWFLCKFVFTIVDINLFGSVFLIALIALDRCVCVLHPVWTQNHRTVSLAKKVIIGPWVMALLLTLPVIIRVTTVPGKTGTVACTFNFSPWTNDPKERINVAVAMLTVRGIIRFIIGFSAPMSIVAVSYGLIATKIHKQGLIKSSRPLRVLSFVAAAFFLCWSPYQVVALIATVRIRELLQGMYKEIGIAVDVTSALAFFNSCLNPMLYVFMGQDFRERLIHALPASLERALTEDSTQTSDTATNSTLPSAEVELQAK
Chain of Endoplasmic reticulum aminopeptidase 1 (Q9NZ08 whole entry): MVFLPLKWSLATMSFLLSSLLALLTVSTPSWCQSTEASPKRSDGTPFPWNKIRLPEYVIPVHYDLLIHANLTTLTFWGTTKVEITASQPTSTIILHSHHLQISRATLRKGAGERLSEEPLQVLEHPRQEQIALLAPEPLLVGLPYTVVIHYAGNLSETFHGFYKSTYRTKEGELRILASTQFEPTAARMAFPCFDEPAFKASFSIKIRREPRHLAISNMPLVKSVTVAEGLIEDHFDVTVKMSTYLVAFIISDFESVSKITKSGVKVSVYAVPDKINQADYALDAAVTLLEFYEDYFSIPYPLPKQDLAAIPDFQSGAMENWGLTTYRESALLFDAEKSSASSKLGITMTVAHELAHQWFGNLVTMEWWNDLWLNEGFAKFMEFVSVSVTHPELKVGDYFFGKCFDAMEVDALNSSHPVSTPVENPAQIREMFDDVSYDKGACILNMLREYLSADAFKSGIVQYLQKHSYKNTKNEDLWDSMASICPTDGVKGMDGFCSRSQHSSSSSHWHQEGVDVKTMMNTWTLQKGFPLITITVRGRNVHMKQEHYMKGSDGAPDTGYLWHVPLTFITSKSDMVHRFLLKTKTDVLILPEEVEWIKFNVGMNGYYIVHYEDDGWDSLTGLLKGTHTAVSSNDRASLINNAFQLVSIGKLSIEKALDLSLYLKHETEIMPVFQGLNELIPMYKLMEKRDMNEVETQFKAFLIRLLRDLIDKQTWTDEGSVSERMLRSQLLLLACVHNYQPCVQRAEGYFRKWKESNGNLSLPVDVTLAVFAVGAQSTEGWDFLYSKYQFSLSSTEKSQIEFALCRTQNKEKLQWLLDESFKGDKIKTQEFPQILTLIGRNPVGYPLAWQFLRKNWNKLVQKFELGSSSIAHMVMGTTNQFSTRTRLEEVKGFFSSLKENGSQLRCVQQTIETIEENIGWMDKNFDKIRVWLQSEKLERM
Chain of Paired box protein Pax-8 (Q06710 whole entry): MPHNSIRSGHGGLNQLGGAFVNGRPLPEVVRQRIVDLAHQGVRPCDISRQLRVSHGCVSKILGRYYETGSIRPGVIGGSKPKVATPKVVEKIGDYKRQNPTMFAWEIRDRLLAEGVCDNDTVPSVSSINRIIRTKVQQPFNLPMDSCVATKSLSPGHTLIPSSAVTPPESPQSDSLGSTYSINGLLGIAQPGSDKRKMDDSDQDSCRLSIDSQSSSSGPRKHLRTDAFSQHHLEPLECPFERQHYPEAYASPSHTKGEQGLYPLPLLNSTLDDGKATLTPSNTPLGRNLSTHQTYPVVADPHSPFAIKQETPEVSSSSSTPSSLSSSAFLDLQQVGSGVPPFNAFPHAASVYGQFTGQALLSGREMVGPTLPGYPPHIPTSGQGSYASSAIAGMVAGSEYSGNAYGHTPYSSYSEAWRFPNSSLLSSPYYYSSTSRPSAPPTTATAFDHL

Question: With `COc1ccc(Cl)cc1-n1c(=S)sc2c(O)nc(SCC(=O)NCC3CCCO3)nc21` (stereo not drawn) as the compound, how does the Ki [1] read?
Answer: Its Ki is 9.3 µM (active).

Question: With `C[C@H]1CN([C@@H](C)CO)C(=O)Cc2cc(NC(=O)C3CC3)ccc2O[C@@H]1CN(C)Cc1ccc(-c2ccccc2)cc1` as the compound, how does the AC50 [2] read?
Answer: Its AC50 is > 70 µM (inactive).

Question: And the AC50 [3]?
Answer: The AC50 was 38 µM (active).

Question: What about the AC50 [4] of the same compound?
Answer: Its AC50 is 6.35 µM (active).

Question: What about the AC50 [5] of the same compound?
Answer: The AC50 was 21.9 µM (active).

Question: Which AC50 [6] does the source give for `COCC(=O)N1[C@@H]2Cn3c(ccc(/C=C/c4ccccc4)c3=O)[C@H]1[C@@H](C(=O)N1CCOCC1)[C@@H]2CO` here?
Answer: The AC50 was 6.74 µM (active).

Question: For `Clc1ccc(-c2nnc(SCc3cn(Cc4ccccc4)nn3)o2)cc1`, which IC90 [7] is on record?
Answer: The IC90 was 1 µM (active).

Question: What about the IC90 ([7]; Mycobacterium tuberculosis) of the same compound?
Answer: The IC90 was 2 µM (active).

Question: What about the IC90 [8] of the same compound?
Answer: The IC90 was 1 µM (active).

Question: And the IC90 ([8]; Mycobacterium tuberculosis)?
Answer: Its IC90 is 2 µM (active).

Question: For `C[C@H](CO)N1C[C@H](C)[C@@H](CN(C)C)Oc2ccc(NC(=O)Nc3ccc(F)cc3)cc2CC1=O`, which AC50 [9] is on record?
Answer: The AC50 was > 30 µM (inactive).

Question: For `O=C(NCCc1ccncc1)[C@H]1N[C@H]2c3ccc(/C=C/c4ccccc4)c(=O)n3C[C@H]2[C@@H]1CO`, which AC50 [6] is on record?
Answer: The AC50 was 14.1 µM (active).

Question: Which Ki [1] does the source give for `CC1(C)S[C@@H]2[C@H](NC(=O)C(C(=O)O)c3ccccc3)C(=O)N2[C@H]1C(=O)O` (stereo partly drawn) [CARBENICILLIN DISODIUM] here?
Answer: Its Ki is > 66.7 µM (inactive).
